Experimental data taken from US9200046B2, “Reporter system for high throughput screening of compounds and uses thereof” (priority 2011, dated 2015).
Structures can show the parent of a compound that is named as a salt. Where two headings read alike, the source gives them in different places.

Target: Nrf2-Keap1 complex (Homo sapiens, UniProt Q14145)
Experiment: cell-based
Type: cell-based
Settings: for activation at 16 µM / activation at 32 µM: 3 h; for activation at 16 µM: read-out: Activation 100 nL; for activation at 32 µM: read-out: Activation 200 nL
[1] = Table 1A, 100 nL compound, screen run at 16 and 32 μM, 3 hr
[2] = Table 1A, 200 nL compound, screen run at 16 and 32 μM, 3 hr
[3] = Table 2, 100 nL compound, screen run at 16 and 32 μM, 3 hr
[4] = Table 2, 200 nL compound, screen run at 16 and 32 μM, 3 hr

Sequence of Nrf2-Keap1 complex (Q14145 whole entry, one chain of several): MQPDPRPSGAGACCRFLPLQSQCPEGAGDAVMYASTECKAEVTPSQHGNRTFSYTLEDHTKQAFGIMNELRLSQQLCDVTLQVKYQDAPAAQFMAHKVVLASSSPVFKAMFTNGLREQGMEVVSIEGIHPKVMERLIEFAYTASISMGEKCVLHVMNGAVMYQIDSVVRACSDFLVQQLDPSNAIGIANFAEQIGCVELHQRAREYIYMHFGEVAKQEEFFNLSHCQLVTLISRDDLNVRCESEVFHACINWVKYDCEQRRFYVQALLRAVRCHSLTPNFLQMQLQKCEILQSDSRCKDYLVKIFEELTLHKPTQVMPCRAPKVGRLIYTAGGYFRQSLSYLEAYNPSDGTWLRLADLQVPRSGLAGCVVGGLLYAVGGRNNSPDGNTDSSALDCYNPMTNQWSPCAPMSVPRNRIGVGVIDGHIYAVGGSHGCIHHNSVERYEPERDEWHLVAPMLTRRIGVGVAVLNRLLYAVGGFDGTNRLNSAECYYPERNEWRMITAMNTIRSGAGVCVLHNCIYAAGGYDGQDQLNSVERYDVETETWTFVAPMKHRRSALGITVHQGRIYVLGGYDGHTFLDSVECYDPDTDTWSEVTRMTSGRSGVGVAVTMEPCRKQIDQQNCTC

Row | Compound | activation at 16 µM | activation at 32 µM | 100 nL (luminescence) [3] | 200 nL (luminescence) [4] | further results
1 | COc1ccc2c(c1)[C@@]1(C)CCC(=O)C[C@H]1CC2 [5beta-12-METHOXY-4,4-BISNOR-8,11,13-PODOCARPATRIEN-3-ONE] | 46% | 13% | – | – | 100 nL (luminescence) [1]: 768; 200 nL (luminescence) [2]: 636
2 | O=C(CC[N+](=O)[O-])OC[C@H]1O[C@@H](O)[C@H](OC(=O)CC[N+](=O)[O-])[C@@H](OC(=O)CC[N+](=O)[O-])[C@@H]1OC(=O)CC[N+](=O)[O-] [[…]] | – | – | 1020 | 1268 | Activation 100 nL: 75%; Activation 200 nL: 40%
3 | CC(=O)N1CCN(c2ccc(OCC3CO[C@](Cn4ccnc4)(c4ccc(Cl)cc4Cl)O3)cc2)CC1 (stereo partly drawn) [KETOCONAZOLE, reference compound] | – | – | – | – | 100 nL (luminescence): 1144; 200 nL (luminescence): 1026; Activation 100 nL: 64%; Activation 200 nL: 33%
4 | CC1CCc2cc(F)cc3c(=O)c(C(=O)O)cn1c23 (stereo not drawn) [FLUMEQUINE, reference compound] | 38% | -2% | – | – | 100 nL (luminescence): 1156; 200 nL (luminescence): 368
5 | CC(=O)OC[C@@]1(O)C[C@@]23CC[C@@H]4c5ccoc5CC[C@@]4(C)[C@@H]2CC[C@@H]1C3 [CAFESTOLACETATE] | 81% | 67% | 1452 | 1976 | –
6 | O=c1c(O)c(-c2ccccc2)oc2cccc(O)c12 [3,5-DIHYDROXYFLAVONE] | 66% | -17% | 1484 | 24 | –
7 | CN(C)c1ccc(O)c2c1C[C@H]1C[C@H]3[C@H](N(C)C)C(O)=C(C(N)=O)C(=O)[C@@]3(O)C(O)=C1C2=O [MINOCYCLINEHYDROCHLORIDE, reference compound] | 326% | 169% | – | – | Neh2-luc reporter activation: 200%
8 | COc1ccnc(C[S+]([O-])c2nc3cc(OC(F)F)ccc3[nH]2)c1OC (stereo not drawn) [PANTOPRAZOLE, reference compound] | 25% | 60% | – | – | 100 nL (luminescence) [1]: 904; 200 nL (luminescence) [2]: 1504
9 | CC(=O)Oc1ccc(Cl)c2cccnc12 [CHLOROACETOXYQUINOLINE] | 60% | 37% | – | – | Neh2-luc reporter activation: 60%
10 | COc1cc(O)cc(OC)c1OC [ANTIAROL] | 74% | 81% | 1016 | 2248 | –
11 | CCOC(=O)CCC(=O)O[C@H]1[C@H](O[C@@H]2[C@@H](C)[C@H](O[C@H]3C[C@@](C)(OC)[C@@H](O)[C@H](C)O3)[C@@H](C)C(=O)O[C@H](CC)[C@@](C)(O)[C@H](O)[C@@H](C)C(=O)[C@H](C)C[C@@]2(C)O)O[C@H](C)C[C@@H]1N(C)C [ERYTHROMYCINETHYLSUCCINATE, reference compound] | 41% | -20% | – | – | –
12 | CNC(=O)Oc1cccc2c1OC(C)(C)O2 [BENDIOCARB] | 87% | 101% | – | – | 100 nL (luminescence): 1532; 200 nL (luminescence): 2760
13 | C[C@]12CCC(=O)C=C1CCc1ccc(O)cc12 [12-HYDROXY-4,4-BISNOR-4,8,11,13-PODOCARPATETRAEN-3-ONE] | – | – | 592 | 768 | Activation 100 nL: 26%; Activation 200 nL: 18%
14 | O=CC=Cc1ccc(O)cc1 [p-HYDROXYCINNAMALDEHYDE] | 63% | 122% | 1208 | 3256 | –
15 | NCCc1ccc(O)c(O)c1 [3-HYDROXYTYRAMINE] | 37% | 69% | – | – | 100 nL (luminescence): 990; 200 nL (luminescence): 1704
16 | O=C1C(O)=C(O)C(=O)C(O)=C1O [TETROQUINONE] | 26% | 27% | 908 | 720 | –
